Assays:
αKGDH [1] = assay: αKGDH protection against SIN-1 nitrative stress in isolated mitochondria in vitro; assay type: biochemical, rat; settings: 400 μM SIN-1, one hour
Protocol: FIG. 3 is a graph showing rat brain mitochondria exposed to 0.4 mM SIN-1 for 1 H after addition of tocopherol. (•)α-tocopherol; (▪)γ-tocopherol. The scale bars labeled [α]norm and [Y]norm indicate the normal endogenous quantities of α-tocopherol and γ-tocopherol, respectively, in human brain.
αKGDH is a rate-limiting enzyme of mitochondrial energy production which is diminished in conditions of vascular ischemia (53-58); augmentation of the enzyme with α-ketoglutarate has been found beneficial and α-ketoglutarate is now included as a component in cardioplegia fluid to improve recovery after heart surgery (59). We undertook to determine whether γT protects αKGDH against nitrative stress in vitro. Mitochondria were isolated from adult rat brain then sonicated briefly in the presence of either αT or γT, or an ethanol vehicle. Mitochondria were then exposed to SIN-1, which generates NO and superoxide simultaneously at a known rate (7). Combination of NO and superoxide yields ONOO^−. in situ (discussed above).

αKGDH [2] = assay: heart αKGDH activity after tocopherol supplementation, with or without LPS challenge; assay type: in vivo, rat; settings: animals not subjected to LPS stress; 15 mg tocopherol I.P. over 30 days
Protocol: Rats were injected with 15 mg of tocopherol over the first 1 month of life; specific groups were then challenged with a septic dose of LPS and heart αKGDH activity was assayed 24 H later. *p<0.1 relative to vehicle; †p<0.05 relative to vehicle. N=5/group.
Rat pups were injected intraperitoneally (I.P.) with αT or γT in an olive oil vehicle every other day for 30 days beginning 2 days after birth; control animals received vehicle only. […] A total of 15 mg tocopherol was delivered to each animal over the 30 day period; animal weight at the end of the period was approximately 90 g for all three groups. One half of each animal group was injected with a septic dose of LPS (2.5 mg/kg, I.P). After 24 H, animals were killed and organs collected. αKGDH was assayed in heart tissue and tocopherols were measured by HPLC-ECD/PDA.

[3] = rat, in vivo
Protocol: Rat pups were injected intraperitoneally (I.P.) with αT or γT in an olive oil vehicle every other day for 30 days beginning 2 days after birth; control animals received vehicle only. Olive oil was chosen as a vehicle because of the low tocopherol content in this particular vegetable oil. […] One half of each animal group was injected with a septic dose of LPS (2.5 mg/kg, I.P). After 24 H, animals were killed and organs collected. αKGDH was assayed in heart tissue and tocopherols were measured by HPLC-ECD/PDA.

[4] = plasma concentrations of tocopherols and 5-NO2-γ-tocopherol in volunteers; assay type: in vivo, human; settings: mean ± SEM
Description: Smoking is recognized as a major contributing factor to heart disease and γ-T reportedly decreases more than α-T in smokers. Hypertension is also a strong risk factor for heart disease. […] Seven subjects indicated a chronic hypertensive condition. As outlined in Table I, γ-tocopherol tended to decrease in hypertensive subjects while nitration products tended to increase in both smokers and hypertensive subjects. This was the trend regardless of whether the tocopherol concentrations were normalized to plasma triglycerides (Table I).

platelets [5] = assay: platelet aggregation in vitro (PRP, aggregometer); assay type: cell-based, human; settings: 500 μM α-tocopherol or 50 μM γ-tocopherol, 1 H preincubation
Protocol: […] inhibits platelet aggregation in vitro and in vivo, apparently through antagonism of protein kinase C (PKC) (60-63). Concentrations of αT necessary to inhibit aggregation in vitro are on the order of 500 μM (60-63), or approximately 10-fold higher than achieved in vivo. The concentration difference between in vitro and in vivo efficacy has been rationalized on the basis of incomplete tocopherol incorporation into membranes during in vitro incubation (63). Nonetheless, subjects supplemented with oral αT have diminished platelet aggregation (63). We therefore sought to investigate the ability of γ-tocopherol to inhibit platelet aggregation. PRP was obtained from two volunteers. Platelets were stimulated to aggregate with ADP, thrombin receptor activating peptide (TRAP) or the PKC agonist phorbol myristyl acetate (PMA) and aggregation was measured using a 4-channel clinical aggregometer. Specific platelet samples were preincubated with vehicle, αT, γT or 5-NO2-γ-tocopherol for 1 H prior to stimulation. Tocopherol concentrations were set at 10-fold excess to average PRP levels based on the precedent of previous in vitro aggregation experiments that used αT as an inhibitor (60-63).

[6] = system: ECV304 human endothelial cells; settings: 10 μM α-T, 10 μM γ-T or 5 μM of each; 19 hours preincubation; 5 mM SIN-1; 24 hours
Protocol: Cultured ECV304 human endothelial cells were exposed to SIN-1 in the presence of 10 μM α-T, 10 μM γ-T or 5 μM of each (FIG. 5). Tocopherols were incubated with the cells for 19 hours prior to addition of SIN-1. Viability was assayed 24 hours later using a standard tetrazolium (MTT) reduction assay.

platelets [7] = settings: cited from earlier work
[8] = 100 mg/kg/day for 10 days; 29% FeCl3 patch; cited from earlier work
[9] = own supplementation, 100 mg/kg/day, 10 days; cited from earlier work
[10] = associated with a 40% increase in plasma αT; cited from earlier work
[11] = upper vs lowest quintile of αT consumption, 87,425 nurses, 8 years; cited from earlier work
[12] = median intake 419 vs. 6.4 IU/day, 39,910 men; cited from earlier work
[13] = 35,000 postmenopausal women, 7 years; supplements alone or with dietary intake; cited from earlier work
[14] = 400-800 IU/day, 18 months, cited from earlier work
[15] = 50 mg/kg supplement, 5.3 years follow-up; cited from earlier work
[16] = cited from earlier work
[17] = 400 IU/day natural αT, 4.5 years, 9541 subjects; cited from earlier work
[18] = chronic αT supplementation; cited from earlier work

In the case of `Cc1c(C)c2c(c(C)c1O)CC[C@@](C)(CCC[C@H](C)CCC[C@H](C)CCCC(C)C)O2` [α-tocopherol, reference compound], the “concentration offering as much αKGDH protection as 50-100 nM γT” value (αKGDH [1]) is reported as 1 to 10 µM, the “tocopherol concentration of maximal αKGDH protection” value (αKGDH [1]; rat brain mitochondria) is reported as 1 µM and the “increase of mean heart αKGDH activity” value (αKGDH [2]) is reported as 40%. For the same compound, the “heart tissue tocopherol concentration, controls” value [3] was 23±12 ng/mg protein, the plasma concentration ([4]; hypertensives, N = 7) was 23.1 ± 12.2 μg/mL plasma and the “plasma concentration normalized to triglyceride” value (“plasma concentration normalized” for short) ([4]; hypertensives, N = 7) was 21.9 ± 5.9 μg/mg triglyceride. The plasma concentration ([4]; population, N = 54) was 18.3 ± 2.6 μg/mL plasma, the “plasma concentration normalized” value ([4]; population, N = 54) was 34.2 ± 14.2 μg/mg triglyceride and the plasma concentration ([4]; smokers, N = 7) was 24.9 ± 9.2 μg/mL plasma. The “plasma concentration normalized” value ([4]; smokers, N = 7) was 21.5 ± 4.5 μg/mg triglyceride, the “Platelet Aggregation (% maximum)” value (platelets [5]; ADP 20 μM, Subject 1) was 85 % maximum and the “Platelet Aggregation (% maximum)” value (platelets [5]; ADP 20 μM, Subject 2) was 72 % maximum. The “Platelet Aggregation (% maximum)” value (platelets [5]; PMA 200 nM, Subject 1) was 74 % maximum, the “Platelet Aggregation (% maximum)” value (platelets [5]; PMA 200 nM, Subject 2) was 34 % maximum and the “Platelet Aggregation (% maximum)” value (platelets [5]; TRAP 20 μM, Subject 1) was 44 % maximum. The “Platelet Aggregation (% maximum)” value (platelets [5]; TRAP 20 μM, Subject 2) was 75 % maximum, the “effect on SIN-1 toxicity (MTT viability)” value [6] was “no apparent effect” and the “concentration necessary to inhibit aggregation in vitro” value (platelets [7]) was about 500 µM. For the same compound, the “delay/increase of time to occlusive thrombus” value [8] was 25%, the “increase of plasma level above baseline” value [9] was 2 fold and the “lower mortality rate (ischemic heart disease)” value [10] was 84%. The “diminished risk of coronary disease” value [11] was 34%, the “diminished risk of CAD” value [12] was 39% and the “benefit of supplements on cardiovascular death” value [13] was “no benefit”. The “reduction in nonfatal myocardial infarction” value ([14]; 2002 male smokers with CAD) was 77%, the “increase in all-cause mortality” value [14] was 29% and the “effect on MI or mortality” value [15] was “no effect”. For the same compound, the “increase of plasma αT” value ([16]; 50 IU/day supplementation) was 50%, the “effect on death from hemorrhagic stroke” value ([16]; 50 IU/day, 5-8 years) was “increases death from hemorrhagic stroke” and the “effect on total mortality of smokers” value ([16]; 50 IU/day, 5-8 years) was “does not decrease total mortality”. For the same compound, the “effect on primary or secondary cardiovascular outcomes or death” value [17] was “no effect” and the “increase of plasma levels of αT” value [18] was 300-400%.

From patent US6346544B2, “Desmethyl tocopherols for protecting cardiovascular tissue” (Oklahoma Medical Research Foundation, priority 2000, dated 2002)
